Values quoted from earlier work, collected in US20190328772A1, “OPHTHALMIC COMPOSITIONS COMPRISING A CYCLODEXTRIN AS SOLE ACTIVE AGENT” (priority 2016, published 2019).
Where two headings read alike, the source gives them in different places.

What was measured:
[1] = system: mouse brown fat tissue; settings: concentrations of 25-40%, 24 hours
[2] = system: corneal epithelium of rabbits
[3] = system: drusen; settings: 37° C., 24 hours

CC(O)COC[C@H]1O[C@@H]2O[C@H]3[C@H](O)[C@@H](O)[C@@H](O[C@H]4[C@H](O)[C@@H](O)[C@@H](O[C@H]5[C@H](O)[C@@H](O)[C@@H](O[C@H]6[C@H](O)[C@@H](O)[C@@H](O[C@H]7[C@H](O)[C@@H](O)[C@@H](O[C@H]8[C@H](O)[C@@H](O)[C@@H](O[C@H]1[C@H](O)[C@H]2O)O[C@@H]8COCC(C)O)O[C@@H]7COCC(C)O)O[C@@H]6COCC(C)O)O[C@@H]5COCC(C)O)O[C@@H]4COCC(C)O)O[C@@H]3COCC(C)O (stereo partly drawn) [HP-β-CD, Hydroxypropyl-β-cyclodextrin]
removal of mouse brown fat tissue [1]: able to partially remove mouse brown fat tissue
toxicity or irritation in rabbit eyes ([2]; rabbit, in vivo): not to be toxic or irritating
dissolving the lipid component in drusen ([3]; 40 ml of 25%, sections of a cut up human eye): efficacy in dissolving the lipid component in drusen
change of drusen by H&E staining ([3]; 40 ml of different concentrations, eye sections): no change

randomly methylated β-CD [RM-β-CD]
toxicity to the corneal epithelium of rabbits ([2]; concentration 5%): can be toxic

β-Cyclodextrin sulfobutyl ether [SBE-β-CD]
toxicity or irritation in rabbit eyes ([2]; solution of 10%): not to be toxic or irritating
